# Laboratory results taken from the supplement of paper PMC5908809.
# Tests used:
# Assay in all cases: relative IC50 (inflection point of fitted viability curve, relative to fitted max inhibition); higher = less sensitive
# Conditions in all cases: 72 h
# NK-92 (IL-2 2.5 ng/mL) = test system: NK-92 (IL-2 2.5 ng/mL)
# Experimental: (§1)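 Drug sensitivity and resistance testing: 5 concentrations over a 10,000-fold range, 72 h at 37 °C, viability by CellTiter-Glo normalised to DMSO and benzethonium chloride controls. IC50 is the inflection point of a logistic fit (min fixed at 0, max fitted), so it is relative to the fitted maximal inhibition. Kept only where fitted max inhibition is at least 50%.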
# NKL (IL-2 2.5 ng/mL) = test system: NKL (IL-2 2.5 ng/mL)
# Experimental: as §1
# NK-YS (IL-2 2.5 ng/mL) = test system: NK-YS (IL-2 2.5 ng/mL)
# Experimental: as §1
# [1] = test system: normal primary NK cells, pool 3 (3 donors) (IL-2 2.5 ng/mL)
# Experimental: as §1
# YT (IL-2 2.5 ng/mL) = test system: YT (IL-2 2.5 ng/mL)
# Experimental: as §1
# KAI3 (IL-2 2.5 ng/mL) = test system: KAI3 (IL-2 2.5 ng/mL)
# Experimental: as §1
# [2] = test system: normal primary NK cells, pool 1 (3 donors), resting (IL-2 0 ng/mL)
# Experimental: as §1
# DERL-7 (IL-2 2.5 ng/mL) = test system: DERL-7 (IL-2 2.5 ng/mL)
# Experimental: as §1
# [3] = test system: normal primary NK cells, pool 1 (3 donors) (IL-2 2.5 ng/mL)
# Experimental: as §1
# SNK-6 (IL-2 2.5 ng/mL) = test system: SNK-6 (IL-2 2.5 ng/mL)
# Experimental: as §1
# IMC-1 (IL-2 20 ng/mL) = test system: IMC-1 (IL-2 20 ng/mL)
# Experimental: as §1
# [4] = test system: normal primary NK cells, pool 2 (3 donors) (IL-2 2.5 ng/mL)
# Experimental: as §1
# KHYG-1 (IL-2 2.5 ng/mL) = test system: KHYG-1 (IL-2 2.5 ng/mL)
# Experimental: as §1
SMILES,relative IC50 (NK-92 (IL-2 2.5 ng/mL)) [nM],relative IC50 (NKL (IL-2 2.5 ng/mL)) [nM],relative IC50 (NK-YS (IL-2 2.5 ng/mL)) [nM],relative IC50 [1] [nM],relative IC50 (YT (IL-2 2.5 ng/mL)) [nM],relative IC50 (KAI3 (IL-2 2.5 ng/mL)) [nM],relative IC50 [2] [nM],relative IC50 (DERL-7 (IL-2 2.5 ng/mL)) [nM],relative IC50 [3] [nM],relative IC50 (SNK-6 (IL-2 2.5 ng/mL)) [nM],relative IC50 (IMC-1 (IL-2 20 ng/mL)) [nM],relative IC50 [4] [nM],relative IC50 (KHYG-1 (IL-2 2.5 ng/mL)) [nM]
c1ccc(Cn2c(-c3ccc(OC[C@H](C4CCNCC4)n4c(-c5ccccc5)nc5ccccc54)cc3)nc3ccccc32)cc1 [deltarasin],1830,2110,2410,2910,2630,1770,1640,1950,2880,3290,3560,2270,2850
CC1(COc2ccc3c(c2)ncn3-c2ccc3cccc(N4CCC(N)CC4)c3n2)COC1 [Crenolanib],998,633,1890,1640,1600,2250,3660,984,1640,429,2710,1350,1820
CC(C)[C@H](C(=O)Nc1ccc(C(=O)NO)cc1)c1ccccc1 [AR-42],129,219,540,527,527,77.2,297,331,367,241,289,430,240
CC(=O)OC[C@H]1O[C@@H]([S-])[C@H](OC(C)=O)[C@@H](OC(C)=O)[C@@H]1OC(C)=O.CCP(CC)CC.[Au+] [Auranofin],791,241,551,78.4,824,859,26.1,274,53.6,319,761,102,507
Nc1nc(Nc2ccc3c(c2)CC[C@@H](N2CCCC2)CC3)nn1-c1cc2c(nn1)-c1ccccc1CCC2 [BGB324],1020,533,2020,1620,2250,1110,437,508,766,1290,3400,1070,836
Cc1c(N)nc([C@H](CC(N)=O)NC[C@H](N)C(N)=O)nc1C(=O)N[C@H](C(=O)N[C@H](C)[C@@H](O)[C@H](C)C(=O)N[C@H](C(=O)NCCc1nc(-c2nc(C(=O)NCCC[S+](C)C)cs2)cs1)[C@@H](C)O)[C@@H](OC1OC(CO)C(O)C(O)C1OC1OC(CO)C(O)C(OC(N)=O)C1O)c1cnc[nH]1 (some centres not stated) [Bleomycin],662,1150,635,1150,1530,537,3560,1220,2140,41.8,1480,1510,2270
COc1cccc2c1C(=O)c1c(O)c3c(c(O)c1C2=O)C[C@@](O)(/C(CO)=N/NC(=O)CCCCCN1C(=O)C=CC1=O)C[C@@H]3O[C@H]1C[C@H](N)[C@H](O)[C@H](C)O1 [Aldoxorubicin],94.9,4.2,34.3,134,70.8,41.9,71.6,31.2,140,21.7,44.6,96.6,57.7
O=C(CCCCCCNC(=O)c1cnc(N(c2ccccc2)c2ccccc2)nc1)NO [Rocilinostat],1210,814,1620,2470,1810,823,485,1990,1100,1350,2490,1550,1050
CCN(CC)CCOc1ccc(C(=C(Cl)c2ccccc2)c2ccccc2)cc1 [Clomifene],1710,2280,2280,1540,3030,1840,2170,1580,2560,1730,2410,1810,2490
